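Step 1: Grow cells in 96-well plates. Step 2: Expose to compound for 48 hours at 5 concentrations. Step 3: Interpolate endpoints linearly; if unreached, use highest concentration. Here, GI50 denotes the concentration required for 50% inhibition of growth.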 Activity calls are given as the source filed them. No stated cut-off is given here; in the data, active = GI50 up to about 1.1 µM and inactive = higher.
Legend:
Test in all cases: NCI anticancer screen, dose series, 48 h
SK-OV-3 = test system: SK-OV-3
TK-10 = test system: TK-10
NCI-H226 = test system: NCI-H226
SNB-19 = test system: SNB-19
DU-145 = test system: DU-145
HCT-15 = test system: HCT-15
NCI-H522 = test system: NCI-H522
SNB-75 = test system: SNB-75
LOX IMVI = test system: LOX IMVI
SK-MEL-2 = test system: SK-MEL-2
Hs-578T = test system: Hs-578T
SR = test system: SR
OVCAR-5 = test system: OVCAR-5
M14 = test system: M14
HCC 2998 = test system: HCC 2998
SW-620 = test system: SW-620
MCF7 = test system: MCF7
Malme-3M = test system: Malme-3M
786-0 = test system: 786-0
CCRF-CEM = test system: CCRF-CEM

SMILES | GI50 (SK-OV-3) | GI50 (TK-10) | GI50 (NCI-H226) | GI50 (SNB-19) | GI50 (DU-145) | GI50 (HCT-15) | GI50 (NCI-H522) | GI50 (SNB-75) | GI50 (LOX IMVI) | GI50 (SK-MEL-2) | GI50 (Hs-578T) | GI50 (SR) | GI50 (OVCAR-5) | GI50 (M14) | GI50 (HCC 2998) | GI50 (SW-620) | GI50 (MCF7) | GI50 (Malme-3M) | GI50 (786-0) | GI50 (CCRF-CEM)
Cc1cc(S(=O)(=O)N=C2NCC(C)(C)CN2)c(S)cc1Cl | > 100 µM (inactive) | 39 µM (inactive) | 32.1 µM (inactive) | 36.6 µM (inactive) | 83.6 µM (inactive) | 42.7 µM | 27.9 µM (inactive) | 48.5 µM (inactive) | 15.5 µM (inactive) | 21.3 µM (inactive) | 32 µM (inactive) | 37.9 µM (inactive) | 23.1 µM (inactive) | 31.9 µM (inactive) | 67.6 µM (inactive) | 17.9 µM (inactive) | 42.5 µM (inactive) | 44.7 µM (inactive) | 32.1 µM (inactive) | 
NCCOc1cccc(C2(N3CCCCC3)CCCCC2)c1 | > 100 µM (inactive) | 33.7 µM (inactive) | > 100 µM (inactive) | > 100 µM (inactive) | > 100 µM (inactive) | 38.9 µM | 19.1 µM (inactive) | 32.7 µM (inactive) | 14.7 µM (inactive) | 21.8 µM (inactive) | 16.9 µM (inactive) | 16.1 µM (inactive) | 41.4 µM (inactive) | 16.4 µM (inactive) | 19.9 µM (inactive) | 31.5 µM (inactive) | 38.8 µM (inactive) | 20.1 µM (inactive) | 13.3 µM (inactive) | 16.7 µM (inactive)
CN(C)C(n1cc2c(c1)-c1ccc(Cl)cc1C(c1ccccc1F)=NC2)n1cc2c(c1)-c1ccc(Cl)cc1C(c1ccccc1F)=NC2 | > 100 µM (inactive) |  | 13 µM (inactive) | > 100 µM (inactive) | 54 µM (inactive) | > 100 µM | 81.8 µM (inactive) | 24.7 µM (inactive) | 12 µM (inactive) | > 100 µM (inactive) | > 100 µM (inactive) | > 100 µM (inactive) | 20.2 µM (inactive) | 93.1 µM (inactive) | 82 µM (inactive) | > 100 µM (inactive) | 64.3 µM (inactive) | > 100 µM (inactive) | > 100 µM (inactive) | > 100 µM (inactive)
CC1(C)OC1CC/C(=C/CBr)CBr (stereo unspecified) | 19 µM (inactive) | 18.2 µM (inactive) | 21.7 µM (inactive) | 15.2 µM (inactive) | 20.9 µM (inactive) |  | 10.3 µM (inactive) | 6.82 µM (inactive) | 10.2 µM (inactive) | 14.8 µM (inactive) | 17.5 µM (inactive) | 13.8 µM (inactive) | 17.5 µM (inactive) | 19.8 µM (inactive) | 16 µM (inactive) | 15 µM (inactive) | 15 µM (inactive) | 22.3 µM (inactive) | 15.4 µM (inactive) | 8.17 µM (inactive)
Nc1c(C(=O)O)nnc2cc(Cl)ccc12 | > 100 µM (inactive) | > 100 µM (inactive) | > 100 µM (inactive) | > 100 µM (inactive) | > 100 µM (inactive) | > 100 µM | > 100 µM (inactive) | > 100 µM (inactive) | > 100 µM (inactive) | > 100 µM (inactive) | > 100 µM (inactive) | > 100 µM (inactive) | > 100 µM (inactive) | > 100 µM (inactive) | > 100 µM (inactive) | > 100 µM (inactive) | > 100 µM (inactive) | > 100 µM (inactive) | > 100 µM (inactive) | > 100 µM (inactive)
COc1cc2cc[n+](C)c(Cc3ccc(Oc4cc(Cc5c6cc(OC)c(OC)cc6cc[n+]5C)ccc4OC)cc3)c2cc1OC | > 100 µM (inactive) | 40.3 µM (inactive) | > 100 µM (inactive) | > 100 µM (inactive) | > 100 µM (inactive) | > 100 µM | > 100 µM (inactive) | > 100 µM (inactive) | 79.8 µM (inactive) | > 100 µM (inactive) | > 100 µM (inactive) | > 100 µM (inactive) | > 100 µM (inactive) | > 100 µM (inactive) | > 100 µM (inactive) | > 100 µM (inactive) | > 100 µM (inactive) | > 100 µM (inactive) | > 100 µM (inactive) | > 100 µM (inactive)
Nc1nc2[nH]cc(CCc3ccc(C(=O)N[C@@H](CCC(=O)O)C(=O)O)cc3)c2c(=O)[nH]1 [PEMETREXED] | > 100 µM (inactive) | > 100 µM (inactive) | > 100 µM (inactive) | > 100 µM (inactive) | > 100 µM (inactive) | > 100 µM | > 100 µM (inactive) | > 100 µM (inactive) | 0.0743 µM (active) | > 100 µM (inactive) | > 100 µM (inactive) | > 100 µM (inactive) | > 100 µM (inactive) | > 100 µM (inactive) | < 0.01 µM (active) | > 100 µM (inactive) | < 0.0147 µM (active) | > 100 µM (inactive) | < 0.0104 µM (active) | 

— ChEMBL document CHEMBL1201862, “PubChem BioAssay data set” (2004)
